IC50 data for two compounds are collected here from patent US4996235A, “3,4-diphenylbutanamines” (Eli Lilly and Company, priority 1987, dated 1991).

In experiment [1] the test system is 5HT uptake (rat cerebral cortex synaptosomes). Description: Synaptosomal uptake of 3H-serotonin (3H-5HT), inhibition in vitro. The format is biochemical, Male Sprague-Dawley rats. To be noted: rat cortical synaptosomes, 37° C., 5 min, 50 nM 3H-5HT. On the procedure:
(§1) This general procedure is set forth by Wong et al., in Drug Development Research 6:397-403 (1985).
(§2) Male Sprague-Dawley rats (110-150 g) from Harlan Industries (Cumberland, Ind.) were fed a Purina Chow ad libitum for at least 3 days before being used in the studies. Rats were killed by decapitation. Whole brains were removed and dissected. Cerebral cortex was homogenized in 9 volumes of a medium containing 0.32 M sucrose and 10 mM glucose. Crude synaptosomal preparations were isolated after differential centrifugation at 1,000 g for 10 min. and 17,000 g for 28 min. The final pellets were suspended in the same medium and kept in ice until use within the same day.
(§3) Synaptosomal uptake of ^3 H-serotonin(^3 H-5-hydroxytryptaine, ^3 H-5HT) and ^14 C-l-norepinephrine (^14 C-NE) was determined as follows. Cortical synaptosomes (equivalent to 1 mg of protein) were incubated at 37° C. for 5 min in 1 ml of Krebs-bicarbonate medium containing also 10 mM glucose, 0.1 mM iproniazid, 1 mM ascorbic acid, 0.17 mM EDTA, 50 nM ^3 H-5HT and 100 nM ^14 C-NE. The reaction mixture was immediately diluted with 2 ml of ice-chilled Krebs-bicarbonate buffer and filtered under vacuum with a cell harvester (Brandel, Gaithersburg, Md.). […] Radioactivity was measured by a liquid scintillation spectrophotometer. […]

Experiment [2] concerns norepinephrine uptake (rat cerebral cortex synaptosomes). Description: Synaptosomal uptake of 14C-l-norepinephrine (14C-NE), inhibition in vitro. The format is biochemical, Male Sprague-Dawley rats. To be noted: rat cortical synaptosomes, 37° C., 5 min, 100 nM 14C-NE. On the procedure:
as §1, §2, §3

Structures can show the parent of a compound that is named as a salt.

As for `CNCCC(Cc1ccc(C(F)(F)F)cc1)c1ccccc1` (stereo not shown) [Example 1, N-Methyl-3-phenyl-4-(4-trifluoromethylphenyl)-butanaminium chloride], the values for the half-maximal inhibitory concentration (IC50) in experiment [1] and in experiment [2] were 250 nM and 7.6 µM, respectively.
The corresponding values for `CNCCC(Cc1ccccc1C)c1ccccc1` (stereo not shown) [Example 2, N-Methyl-3-phenyl-4-(2-methylphenyl)-butanaminium tosylate] are 330 nM and 0.1 µM.
